In article PMC12546632, “The role of cytochrome bc1 inhibitors in future tuberculosis treatment regimens” (Nature Communications, 2025):
Values after ≈ are worked out from the molar mass of the structure shown. Values joined by “and” are separate entries in the source; they are usually repeats but may differ in a detail not shown here. Identical values can stand only once. Like-named read-outs stand apart in the source and are kept apart here.

What was measured:
[1] = biological target: T1, 2C9 (Homo sapiens, UniProt P11712); format: in vitro ADME
T1 construct: from tissue; host or cells: human liver microsomes
T1 sequence (P11712 whole entry): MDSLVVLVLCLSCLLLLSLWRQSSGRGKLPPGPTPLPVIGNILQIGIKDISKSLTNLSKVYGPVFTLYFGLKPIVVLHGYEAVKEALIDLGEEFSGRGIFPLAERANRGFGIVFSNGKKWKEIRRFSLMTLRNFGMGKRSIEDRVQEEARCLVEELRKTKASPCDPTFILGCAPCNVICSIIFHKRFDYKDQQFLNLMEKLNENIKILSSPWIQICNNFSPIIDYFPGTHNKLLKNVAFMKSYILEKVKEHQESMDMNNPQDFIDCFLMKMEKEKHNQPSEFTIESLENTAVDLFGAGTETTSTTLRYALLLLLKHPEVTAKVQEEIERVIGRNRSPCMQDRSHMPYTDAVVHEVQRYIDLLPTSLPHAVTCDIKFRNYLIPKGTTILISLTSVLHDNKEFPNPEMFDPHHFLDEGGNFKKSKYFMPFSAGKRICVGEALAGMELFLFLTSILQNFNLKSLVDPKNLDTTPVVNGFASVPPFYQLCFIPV

[2] = tested on: M. tuberculosis H37Rv; test: MIC90 determination, H37Rv; format: cell-based, Mycobacterium tuberculosis
[3] = tested on: H37Rv_CytBd-KO; test: microbe, parasite or virus in culture; format: cell-based, Mycobacterium tuberculosis; settings: read-out: MBC99.9 (H37Rv_CytBd-KO)
[4] = biological target: T2, 2C8 (Homo sapiens, UniProt P10632); format: in vitro ADME
T2 construct: from tissue; host or cells: human liver microsomes
T2 sequence (P10632 whole entry): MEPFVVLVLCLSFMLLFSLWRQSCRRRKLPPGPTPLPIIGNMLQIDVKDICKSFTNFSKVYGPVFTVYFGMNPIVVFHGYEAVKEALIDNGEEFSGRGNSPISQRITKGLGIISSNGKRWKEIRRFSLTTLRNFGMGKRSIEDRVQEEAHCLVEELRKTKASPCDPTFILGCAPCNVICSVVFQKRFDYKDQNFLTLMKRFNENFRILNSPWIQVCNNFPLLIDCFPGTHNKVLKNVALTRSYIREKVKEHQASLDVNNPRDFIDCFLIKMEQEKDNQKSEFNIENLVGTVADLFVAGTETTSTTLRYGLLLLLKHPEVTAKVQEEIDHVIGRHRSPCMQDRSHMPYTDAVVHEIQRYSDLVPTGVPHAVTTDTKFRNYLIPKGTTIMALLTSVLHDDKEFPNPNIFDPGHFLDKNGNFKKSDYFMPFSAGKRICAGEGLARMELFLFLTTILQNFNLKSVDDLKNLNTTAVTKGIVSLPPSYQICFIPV

[5] = tested on: N1283 clinical isolate; format: cell-based, Mycobacterium tuberculosis; settings: biological replicates
[6] = tested on: clinical isolate, N1283; parameters: species or system Mycobacterium tuberculosis; settings: in vivo
[7] = tested on: Salmonella typhimurium strains TA98 and TAMix
[8] = tested on: M. tuberculosis clinical isolates; test: microbe, parasite or virus in culture; format: cell-based, Mycobacterium tuberculosis
[9] = mouse, in vivo, iv, 1 mg/kg
[10] = tested on: H37Rv_CydBd-KO; test: microbe, parasite or virus in culture; format: cell-based, Mycobacterium tuberculosis
[11] = tested on: M. tuberculosis H37Rv; test: MBC99.9 determination, H37Rv; format: cell-based, Mycobacterium tuberculosis
[12] = tested on: WT H37Rv; format: cell-based, Mycobacterium tuberculosis; settings: biological replicates
[13] = biological target: T3, 2C19 (Homo sapiens, UniProt P33261); format: in vitro ADME
T3 construct: from tissue; host or cells: human liver microsomes
T3 sequence (P33261 whole entry): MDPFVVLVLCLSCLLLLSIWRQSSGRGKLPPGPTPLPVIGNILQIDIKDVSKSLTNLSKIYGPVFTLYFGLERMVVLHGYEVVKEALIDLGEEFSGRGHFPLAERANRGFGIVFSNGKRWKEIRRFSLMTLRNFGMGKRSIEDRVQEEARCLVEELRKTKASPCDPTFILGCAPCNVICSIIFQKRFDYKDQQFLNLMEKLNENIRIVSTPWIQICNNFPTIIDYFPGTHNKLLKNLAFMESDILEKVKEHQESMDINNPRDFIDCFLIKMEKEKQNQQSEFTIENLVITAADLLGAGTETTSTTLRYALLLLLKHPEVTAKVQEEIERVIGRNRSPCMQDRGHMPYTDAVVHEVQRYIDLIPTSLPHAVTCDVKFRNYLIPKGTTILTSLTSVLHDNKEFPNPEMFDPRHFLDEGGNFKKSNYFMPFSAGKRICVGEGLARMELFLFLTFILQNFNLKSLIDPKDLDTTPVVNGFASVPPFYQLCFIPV

[14] = format: in vitro ADME
Protocol: (§1) Details of the metabolic stability in liver microsomes and hepatocytes together with CYP inhibition in human liver microsomes and plasma protein binding have been published previously. The CYP induction assay was conducted by Puracyp Inc (www.puracyp.com). Studies were designed to evaluate the effect of compounds on the activation of human PXR (hPXR). The DPX2TM cells harbour the human PXR gene (NR1I2) and a luciferase reporter gene linked to two promoters identified in the human CYP3A4 gene, namely XREM and PXRE. These cells were seeded in a 96-well plate. Twenty-four hours after seeding, the cells were treated with various concentrations of compounds then incubated for an additional 24 h. Following this, the number of viable cells per well were determined using Promega’s CellTiter Fluor Cytotoxicity Assay. Briefly, One-Glo was added to the same wells and reporter gene activity was assessed. The luminescence light intensity was directly proportional to the extent of PXR activation and accompanying gene transcription in the DPX2TM cells.

[15] = biological target: human PXR (hPXR) (Homo sapiens, UniProt O75469); format: in vitro ADME
Sequence of human PXR (hPXR) (O75469 whole entry): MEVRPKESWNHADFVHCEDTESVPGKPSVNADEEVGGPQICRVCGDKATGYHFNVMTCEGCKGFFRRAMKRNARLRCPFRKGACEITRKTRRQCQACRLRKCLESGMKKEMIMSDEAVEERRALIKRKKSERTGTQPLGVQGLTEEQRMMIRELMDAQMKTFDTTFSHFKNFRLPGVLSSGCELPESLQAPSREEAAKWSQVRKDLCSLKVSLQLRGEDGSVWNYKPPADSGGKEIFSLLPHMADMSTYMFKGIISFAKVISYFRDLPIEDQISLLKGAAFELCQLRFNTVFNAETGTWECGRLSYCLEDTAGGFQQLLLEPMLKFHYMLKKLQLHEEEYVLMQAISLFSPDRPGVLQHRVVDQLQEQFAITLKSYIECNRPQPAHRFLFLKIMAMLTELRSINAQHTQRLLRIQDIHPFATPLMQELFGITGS
Protocol: as §1

[16] = biological target: T4, 2D6 (Homo sapiens, UniProt P10635); format: in vitro ADME
T4 construct: from tissue; host or cells: human liver microsomes
T4 sequence (P10635 whole entry): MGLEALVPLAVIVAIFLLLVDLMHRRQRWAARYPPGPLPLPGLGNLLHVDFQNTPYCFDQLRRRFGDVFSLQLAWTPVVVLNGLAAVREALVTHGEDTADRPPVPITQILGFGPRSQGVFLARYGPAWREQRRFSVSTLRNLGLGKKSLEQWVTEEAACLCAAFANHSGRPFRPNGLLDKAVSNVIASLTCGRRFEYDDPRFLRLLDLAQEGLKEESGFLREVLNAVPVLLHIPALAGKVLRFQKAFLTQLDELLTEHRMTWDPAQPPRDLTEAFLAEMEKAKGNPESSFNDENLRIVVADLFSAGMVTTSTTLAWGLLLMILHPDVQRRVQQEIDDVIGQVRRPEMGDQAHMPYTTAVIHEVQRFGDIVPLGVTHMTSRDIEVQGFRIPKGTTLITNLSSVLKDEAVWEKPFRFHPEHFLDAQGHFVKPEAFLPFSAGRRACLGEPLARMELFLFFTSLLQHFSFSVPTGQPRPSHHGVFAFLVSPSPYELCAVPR

[17] = tested on: HepG2 cells
[18] = biological target: T5, 3A4 (Homo sapiens, UniProt P08684); format: in vitro ADME
T5 construct: from tissue; host or cells: human liver microsomes
T5 sequence (P08684 whole entry): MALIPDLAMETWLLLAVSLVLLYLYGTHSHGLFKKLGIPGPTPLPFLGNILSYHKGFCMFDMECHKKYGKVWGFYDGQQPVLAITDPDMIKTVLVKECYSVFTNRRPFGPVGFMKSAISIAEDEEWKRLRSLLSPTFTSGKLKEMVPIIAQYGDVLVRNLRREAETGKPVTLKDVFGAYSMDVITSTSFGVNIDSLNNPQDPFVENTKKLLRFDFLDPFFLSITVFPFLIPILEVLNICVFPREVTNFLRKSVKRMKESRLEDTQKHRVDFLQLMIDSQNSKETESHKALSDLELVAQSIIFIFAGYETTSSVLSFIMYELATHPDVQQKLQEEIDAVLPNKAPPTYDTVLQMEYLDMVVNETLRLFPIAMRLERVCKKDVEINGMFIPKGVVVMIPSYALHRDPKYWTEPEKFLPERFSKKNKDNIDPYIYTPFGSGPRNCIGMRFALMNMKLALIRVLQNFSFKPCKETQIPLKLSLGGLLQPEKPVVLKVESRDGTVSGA

[19] = biological target: T6, 1A2 (Homo sapiens, UniProt P05177); format: in vitro ADME
T6 construct: from tissue; host or cells: human liver microsomes
T6 sequence (P05177 whole entry): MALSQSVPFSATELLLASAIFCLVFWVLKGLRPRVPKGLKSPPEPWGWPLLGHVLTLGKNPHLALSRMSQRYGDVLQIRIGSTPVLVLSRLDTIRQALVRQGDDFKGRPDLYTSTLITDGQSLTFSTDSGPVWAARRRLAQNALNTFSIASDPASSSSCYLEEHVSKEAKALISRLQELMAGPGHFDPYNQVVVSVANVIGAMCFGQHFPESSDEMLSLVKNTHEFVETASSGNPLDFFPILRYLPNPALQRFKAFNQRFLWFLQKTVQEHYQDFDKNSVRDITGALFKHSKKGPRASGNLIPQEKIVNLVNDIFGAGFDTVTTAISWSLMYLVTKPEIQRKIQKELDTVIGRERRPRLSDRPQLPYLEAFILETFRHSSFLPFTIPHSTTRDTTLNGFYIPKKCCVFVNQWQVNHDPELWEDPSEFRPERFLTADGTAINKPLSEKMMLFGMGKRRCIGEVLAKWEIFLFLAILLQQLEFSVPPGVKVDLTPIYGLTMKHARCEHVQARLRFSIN

[20] = tested on: M. tuberculosis ΔcydAB (Parent); test: microbe, parasite or virus in culture; format: cell-based
[21] = format: in vitro ADME; settings: hepatocytes
[22] = tested on: M. tuberculosis reference strain H37Rv; test: Survival under monotherapy in intravenous model (related to Study C); format: in vivo, Mycobacterium tuberculosis

CCc1nc2ncc(C)cn2c1C(=O)NCc1ccc(N2CCN(S(=O)(=O)C(F)(F)F)C=N2)c(F)c1 [JNJ-4052]
IC50 [1]: > 20 µM | MIC90 ([2]; read-out: MIC90 (H37Rv)): 7 nM (≈ 3.69 ng/mL) | MIC90 ([2]; strain H37Rv (Institut Pasteur, lineage 4), read-out: MIC90): 6 nM (≈ 3.17 ng/mL) | MBC [3]: 300 nM (≈ 158 ng/mL) | IC50 [4]: > 20 µM | CFU counts ([5]; Conc 8 nM): 2200000 CFU and 6000000 CFU and 800000 CFU and 200000 CFU | CFU counts ([5]; Conc 32 nM): 150000 CFU and 400000 CFU and 80000 CFU and 50000 CFU | CFU counts ([5]; Conc 128 nM): 170000 CFU and 300000 CFU and 90000 CFU and 80000 CFU | CFU reduction [6]: 1.6 log10 | Mutagenicity (AMES II) [7]: negative | MIC90 ([8]; strain Mtb-0617 (Karonga, lineage 3)): 1.3 nM (≈ 0.686 ng/mL) | MIC90 ([8]; strain Mtb-2703 (Karonga, lineage 3)): 0.13 nM (≈ 0.0686 ng/mL) | MIC90 ([8]; strain Mtb-4779 (Karonga, lineage 2)): 0.29 nM (≈ 0.153 ng/mL) | MIC90 ([8]; strain Mtb-4980 (Karonga, lineage 4)): 0.7 nM (≈ 0.369 ng/mL) | MIC90 ([8]; strain Mtb-6787 (Karonga, lineage 4)): 0.71 nM (≈ 0.375 ng/mL) | MIC90 ([8]; strain Mtb-7489 (Karonga, lineage 1)): 2.5 nM (≈ 1.32 ng/mL) | MIC90 ([8]; strain Mtb-7496 (Karonga, lineage 3)): 0.29 nM (≈ 0.153 ng/mL) | MIC90 ([8]; strain Mtb-9271 (Karonga, lineage 4)): 0.2 nM (≈ 0.106 ng/mL) | MIC90 ([8]; strain Mtb-61164 (Karonga, lineage 2)): 0.79 nM (≈ 0.417 ng/mL) | MIC90 ([8]; strain N0054 (Gagneux, lineage 3)): 0.85 nM (≈ 0.448 ng/mL) | MIC90 ([8]; strain N0072 (Gagneux, lineage 1)): 1.2 nM (≈ 0.633 ng/mL) | MIC90 ([8]; strain N1283 (Gagneux, lineage 4)): 0.73 nM (≈ 0.385 ng/mL) | CLp as % LBF [9]: ~ 11 % LBF | MIC90 [10]: 7 nM (≈ 3.69 ng/mL) | MBC [11]: > 1250 nM | CFU counts ([12]; Conc 8 nM): 50000000 CFU and 20000000 CFU and 53000000 CFU and 30000000 CFU | CFU counts ([12]; Conc 32 nM): 17000000 CFU and 12000000 CFU | CFU counts ([12]; Conc 128 nM): 26000000 CFU and 17000000 CFU | IC50 [13]: > 20 µM | Plasma protein binding, Rat (% free) [14]: 2.67 % free | Dog Hep Clint ([14]; hepatocytes): 4.7 µL min-1 106 cells-1 | Human Hep Clint ([14]; hepatocytes): 6.7 µL min-1 106 cells-1 | Rat Hep Clint ([14]; hepatocytes): 19 µL min-1 106 cells-1 | Dog LM Clint ([14]; microsomes): < 7.7 µL min-1 mg protein-1 | Human LM Clint ([14]; microsomes): 20.4 µL min-1 mg protein-1 | Mouse LM Clint ([14]; microsomes): 42 µL min-1 mg protein-1 | Rat LM Clint ([14]; microsomes): 16.7 µL min-1 mg protein-1 | Cyp3A4 ind. (%ctrl) ([15]; 1 µM): 3.0 %ctrl | Cyp3A4 ind. (%ctrl) ([15]; 10 µM): 21.2 %ctrl | IC50 [16]: > 20 µM | IC20 [17]: 98.8 µM | IC50 [18]: > 20 µM | IC50 [19]: > 20 µM | MIC50 ([20]; Parent (ΔcydAB)): 10 nM (≈ 5.28 ng/mL) | Mouse Hep Clint [21]: 12 µL min-1 106 cells-1

COc1c(N2C[C@@H]3CCCN[C@@H]3C2)c(F)cc2c(=O)c(C(=O)O)cn(C3CC3)c12 [Moxifloxacin, moxifloxacin, reference compound]
Survival of mice under monotherapy ([22]; in vivo, iv): 100% | Day of death, individual mice ([22]; intravenous model, monotherapy, read with the 1/0 flag of the same line (96 with flag 0)): 96

CO[C@H]1/C=C/O[C@@]2(C)Oc3c(C)c(O)c4c(O)c(c(/C=N/N5CCN(C)CC5)c(O)c4c3C2=O)NC(=O)/C(C)=C\C=C\[C@H](C)[C@H](O)[C@@H](C)[C@@H](O)[C@@H](C)[C@H](OC(C)=O)[C@@H]1C [Rifampicin, rifampicin]
MIC50 ([20]; Mycobacterium tuberculosis): 100 nM (≈ 82.3 ng/mL)
